From the NIST ThermoML archive (doi:10.1016/j.jct.2011.02.018)

Assay: xn = mol fraction of the nth substance listed
Settings: 101 kPa, Liquid; for viscosity: Concentric cylinders viscometry; for mass density: Vibrating tube method

COC(C)(C)C [2-methoxy-2-methylpropane] + CCCCO
Settings | mass density, 293.15 K [kg/m3] | mass density, 298.15 K [kg/m3] | mass density, 303.15 K [kg/m3] | mass density, 308.15 K [kg/m3] | viscosity, 293.15 K [mPa·s] | viscosity, 298.15 K [mPa·s] | viscosity, 303.15 K [mPa·s] | viscosity, 308.15 K [mPa·s]
x1 = 0.0104 | 809.06 | 805.25 | 801.38 | 797.5 | 2.875 | 2.518 | 2.22 | 1.958
x1 = 0.0243 | 808.13 | 804.31 | 800.43 | 796.52 | 2.741 | 2.41 | 2.126 | 1.882
x1 = 0.0294 | 807.77 | 803.94 | 800.06 | 796.14 | 2.696 | 2.374 | 2.094 | 1.855
x1 = 0.0396 | 807.09 | 803.24 | 799.35 | 795.41 | 2.618 | 2.298 | 2.032 | 1.8
x1 = 0.0498 | 806.41 | 802.54 | 798.63 | 794.68 | 2.522 | 2.227 | 1.973 | 1.75
x1 = 0.0601 | 805.74 | 801.84 | 797.91 | 793.95 | 2.439 | 2.156 | 1.908 | 1.697
x1 = 0.0699 | 805.07 | 801.16 | 797.21 | 793.24 | 2.366 | 2.093 | 1.857 | 1.654
x1 = 0.0804 | 804.38 | 800.44 | 796.49 | 792.5 | 2.296 | 2.028 | 1.809 | 1.612
x1 = 0.0898 | 803.72 | 799.79 | 795.81 | 791.81 | 2.224 | 1.969 | 1.752 | 1.564
x1 = 0.1006 | 802.95 | 798.99 | 795 | 790.98 | 2.144 | 1.903 | 1.695 | 1.514
x1 = 0.1507 | 799.54 | 795.53 | 791.47 | 787.38 | 1.85 | 1.656 | 1.489 | 1.334
x1 = 0.1993 | 796.26 | 792.17 | 788.04 | 783.88 | 1.6 | 1.437 | 1.294 | 1.169
x1 = 0.2516 | 792.7 | 788.55 | 784.35 | 780.11 | 1.382 | 1.25 | 1.132 | 1.029
x1 = 0.3022 | 789.27 | 785.01 | 780.75 | 776.43 | 1.216 | 1.103 | 0.9992 | 0.9132
x1 = 0.3515 | 785.87 | 781.6 | 777.25 | 772.86 | 1.077 | 0.9815 | 0.893 | 0.8189
x1 = 0.4031 | 782.33 | 777.98 | 773.56 | 769.1 | 0.9523 | 0.8743 | 0.797 | 0.7323
x1 = 0.4497 | 779.15 | 774.73 | 770.24 | 765.7 | 0.8598 | 0.7902 | 0.7267 | 0.6743
x1 = 0.4999 | 775.69 | 771.23 | 766.66 | 762.05 | 0.7724 | 0.7125 | 0.6568 | 0.6081
x1 = 0.5485 | 772.39 | 767.84 | 763.2 | 758.52 | 0.6999 | 0.6476 | 0.5981 | 0.5512
x1 = 0.5953 | 769.2 | 764.57 | 759.86 | 755.11 | 0.6397 | 0.5937 | 0.5512 | 0.5073
x1 = 0.6445 | 765.82 | 761.14 | 756.35 | 751.52 | 0.585 | 0.5452 | 0.506 | 0.4692
x1 = 0.6999 | 762 | 757.24 | 752.37 | 747.46 | 0.53 | 0.4937 | 0.4595 | 0.4236
x1 = 0.7466 | 758.77 | 753.92 | 748.98 | 744 | 0.4912 | 0.4586 | 0.4275 | 0.395
x1 = 0.8067 | 754.66 | 749.65 | 744.63 | 739.55 | 0.4474 | 0.4167 | 0.3876 | 0.3578
x1 = 0.8404 | 752.26 | 747.22 | 742.14 | 737.01 | 0.4251 | 0.3961 | 0.3679 | 0.3465
x1 = 0.8695 | 750.22 | 745.15 | 740.03 | 734.85 | 0.408 | 0.3799 | 0.3544 | 0.3327
x1 = 0.8983 | 748.09 | 743 | 737.86 | 732.64 | 0.3889 | 0.3651 | 0.3371 | 0.3165
x1 = 0.9092 | 747.32 | 742.21 | 737.05 | 731.8 | 0.3832 | 0.3591 | 0.3333 | 0.3137
x1 = 0.9188 | 746.62 | 741.51 | 736.33 | 731.09 | 0.3778 | 0.3547 | 0.3301 | 0.3112
x1 = 0.9299 | 745.83 | 740.69 | 735.5 | 730.24 | 0.3717 | 0.3493 | 0.3249 | 0.305
x1 = 0.9398 | 745.11 | 739.96 | 734.74 | 729.47 | 0.3683 | 0.3491 | 0.329 | 0.3048
x1 = 0.9492 | 744.42 | 739.25 | 734.03 | 728.76 | 0.3654 | 0.3479 | 0.3225 | 0.3006
x1 = 0.9607 | 743.59 | 738.39 | 733.15 | 727.86 | 0.358 | 0.3391 | 0.3169 | 0.2958
x1 = 0.9697 | 742.97 | 737.75 | 732.49 | 727.18 | 0.356 | 0.331 | 0.3107 | 0.2998
x1 = 0.9796 | 742.24 | 737.01 | 731.74 | 726.41 | 0.3489 | 0.3267 | 0.3076 | 0.2964
x1 = 0.9902 | 741.47 | 736.22 | 730.94 | 725.59 | 0.3456 | 0.3214 | 0.2976 | 0.2892
